This is an account of results in patent US5492930A, “Method and formulation for treating CNS disorders” (Schering Corporation, priority 1994, dated 1996).

Assay [1] concerns electroconvulsive shock (ECS) induced convulsions. In words: blocking electroconvulsive shock (ECS) induced convulsions (Swinyard et al. procedures). Format: in vivo.
Assay [2] deals with cognitive deficits (scopolamine, MK-801). In words: cognitive enhancement (Examples I and II overall). It counts as in vivo, mice. The following applies: data of Examples I and II. An excerpt: (§1) See, for example Dilts and Berry, J. Pharmacology and Experimental Therapeutics 58, 279-285 (1967).
(§2) The NMDA receptor is strongly implicated in the production of long-term potentiation and subsequent memory processes (Morris, et al., Nature Vol. 319, pp 774-776 (1986)). Blockade of these sites produces amnestic effects in mice on the passive avoidance response.

In assay [3] the test system is amnestic effects of MK-801. The assay can be described thus: passive avoidance response (PAR) test, amnestic effects of MK-801. The following applies: mice. It counts as in vivo.
Source text: FIG. 3 is a plot showing the mean latency time in the PAR test of felbamate and Compound I in blocking the amnestic effects of MK-801.
FIG. 4 is a plot showing the mean latency time in the PAR test of Compound I and the corresponding monoacid-monocarbamate.
as §2

For assay [4], the system named is scopolamine induced cognitive deficit. In words: passive avoidance response (PAR) test, scopolamine induced cognitive deficit. It counts as in vivo. Particulars: mice, sc or po (FIGS. 1 and 2). As to the method: FIGS. 1 and 2 are plots showing the mean latency time in the passive avoidance response (PAR) test of Compound I and arecoline in reversing scopolamine induced cognitive deficits where Compound I is administered subcutaneously (sc) or orally (po).
as §1

The conditions of assay [5]: literature statement; cited from earlier work.
The test system of assay [6] is amnestic effects of MK-801. Particulars: Chiamulera et al. 1990; cited from earlier work.
Assay [7] deals with scopolamine induced cognitive deficit. Particulars: passive avoidance response test, mice; cited from earlier work.
The mark [8] stands for this setting: SC, blocking ECS induced convulsions, read-out: ED50.

Like-named read-outs stand apart in the source and are kept apart here.

The ED50 is the dose at which the effect has come halfway, by size or by number of responders. For the compound `NC(=O)N1c2ccccc2C=Cc2ccccc21` [Carbamazepine], the ED50 in assay [1] (setting [8]) amounted to 12 mg/kg. As to `NC(=O)OCC(CO)c1ccccc1` (stereo not drawn) [Compound I, 2-phenyl-1,3-propanediol monocarbamate], the “effectiveness in blocking ECS induced convulsions vs felbamate and other known anti-convulsants” value in assay [1] (in words) is “significantly less effective than felbamate and other known anti-convulsants”. For the same compound, the 50% effect level in assay [1] (sc) (ED50) was put at a dose of 173 mg/kg. In addition, in assay [2], the “effectiveness vs the corresponding dicarbamate and monoacid-monocarbamate compounds” value is “significantly more effective than the corresponding dicarbamate and monoacid-monocarbamate compounds”. In assay [3], the “blocking the amnestic effects of MK-801” value is on record as “effectively blocks the amnestic effects of MK-801 in this model at low doses” and the “effectiveness in blocking the effects of MK-801 vs the corresponding monoacid-monocarbamate” value is on record as “more effective than the corresponding monoacid-monocarbamate”. For the same compound, in assay [4], the “antagonism of the amnestic effects of scopolamine” value is given as “antagonist for the amnestic effects of scopolamine over a very wide dosage range”. In the case of `O=C1NC(=O)C(c2ccccc2)(c2ccccc2)N1` [Dilantin], the ED50 in assay [1] (setting [8]) is 5.5 mg/kg. With `NC(=O)OCC(COC(N)=O)c1ccccc1` [Felbamate, 2-phenyl-1,3-propanediol dicarbamate], in assay [1] (setting [8]), the median effective dose (ED50) amounted to 42.2 mg/kg. The anticonvulsant effect result in assay [5] is recorded as “effective anticonvulsant agent”. In addition, the “blocking the amnestic effects of MK-801” value in assay [3] was “does not block the effect of MK-801”. As to `C[C@]12N[C@H](Cc3ccccc31)c1ccccc12` [MK-801], the cognitive deficits produced result in assay [6] was “produces cognitive deficits”. Regarding `CCC1(c2ccccc2)C(=O)NC(=O)NC1=O` [Phenobarbital], the ED50 in assay [1] (sc) was found to be 12 mg/kg. Turning to `CN1[C@@H]2C[C@@H](OC(=O)[C@H](CO)c3ccccc3)C[C@H]1[C@@H]1O[C@@H]12` [Scopolamine], the amnestic effect result in assay [7] was “well-known amnestic for mice in a passive avoidance response test”. For `CCCC(CCC)C(=O)O` [Valproate], it took a dose of 550 mg/kg to reach the 50% effect level in assay [1] (sc) (ED50).
